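Interpolation was linear, between the two tested concentrations surrounding the appropriate level; five concentrations were tested over 48 hours in 96-well plates. TGI: total growth inhibition.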
Assays:
Assay in all cases: growth of human tumour cells (NCI), 48 h
LOX IMVI melanoma = test system: LOX IMVI melanoma
HL-60(TB) leukemia = test system: HL-60(TB) leukemia
NCI-H226 lung = test system: NCI-H226 lung
SF-295 CNS = test system: SF-295 CNS
OVCAR-4 ovarian = test system: OVCAR-4 ovarian
HS 578T breast = test system: HS 578T breast
SK-MEL-28 melanoma = test system: SK-MEL-28 melanoma
SK-MEL-2 melanoma = test system: SK-MEL-2 melanoma
BT-549 breast = test system: BT-549 breast
OVCAR-5 ovarian = test system: OVCAR-5 ovarian
SK-MEL-5 melanoma = test system: SK-MEL-5 melanoma
COLO 205 colon = test system: COLO 205 colon
UACC-62 melanoma = test system: UACC-62 melanoma
A498 renal = test system: A498 renal
RXF 393 renal = test system: RXF 393 renal
EKVX NSCLC = test system: EKVX NSCLC
MDA-MB-435 = test system: MDA-MB-435
HCC-2998 colon = test system: HCC-2998 colon
NCI-H522 lung = test system: NCI-H522 lung

Row | SMILES | TGI (LOX IMVI melanoma) | TGI (HL-60(TB) leukemia) | TGI (NCI-H226 lung) | TGI (SF-295 CNS) | TGI (OVCAR-4 ovarian) | TGI (HS 578T breast) | TGI (SK-MEL-28 melanoma) | TGI (SK-MEL-2 melanoma) | TGI (BT-549 breast) | TGI (OVCAR-5 ovarian) | TGI (SK-MEL-5 melanoma) | TGI (COLO 205 colon) | TGI (UACC-62 melanoma) | TGI (A498 renal) | TGI (RXF 393 renal) | TGI (EKVX NSCLC) | TGI (MDA-MB-435) | TGI (HCC-2998 colon) | TGI (NCI-H522 lung)
1 | CC(=O)O[C@H]1CC[C@@]2(C)C(=CC[C@H]3[C@@H]4C/C(=C\c5ccc(N(C)C)cc5)[C@H](OC(C)=O)[C@@]4(C)CC[C@@H]32)C1 | 20.8 µM | 41.2 µM | 33.4 µM | 21 µM | 69 µM | 9.36 µM | 32.8 µM | 22.5 µM | 33.4 µM | 52.8 µM | 74.9 µM | 29.4 µM | 20.7 µM | 36.6 µM | 42.7 µM | 36.7 µM | – | – | –
2 | COC(=O)c1nsc(OC)c1Cl | > 100 µM | > 100 µM | > 100 µM | > 100 µM | > 100 µM | > 100 µM | > 100 µM | – | > 100 µM | > 100 µM | > 100 µM | > 100 µM | > 100 µM | – | > 100 µM | > 100 µM | > 100 µM | > 100 µM | –
3 | COc1ccc(OC)c(/C=C(/C#N)c2ccccc2)c1 | > 100 µM | 19.6 µM | > 100 µM | > 100 µM | 81.5 µM | – | > 100 µM | 54.7 µM | – | > 100 µM | 94.5 µM | > 100 µM | 35.8 µM | 83.8 µM | 38.7 µM | > 100 µM | – | – | 45.5 µM
4 | COC1(OC)CCCc2c1no[n+]2[O-] | > 100 µM | > 100 µM | > 100 µM | > 100 µM | > 100 µM | > 100 µM | > 100 µM | > 100 µM | – | > 100 µM | > 100 µM | > 100 µM | > 100 µM | > 100 µM | > 100 µM | > 100 µM | > 100 µM | > 100 µM | > 100 µM
5 | CC(=O)NC1=N/C(=C\c2ccc(Cl)cc2)C(=O)N1/C=C1\C(=O)Oc2ccccc2C1=O | > 100 µM | > 100 µM | > 100 µM | > 100 µM | > 100 µM | 6.22 µM | > 100 µM | > 100 µM | – | > 100 µM | > 100 µM | > 100 µM | > 100 µM | 57.8 µM | > 100 µM | > 100 µM | > 100 µM | > 100 µM | > 100 µM
6 | COc1ccc(-c2cc3ccccc3oc2=O)cc1OC | > 100 µM | > 100 µM | > 100 µM | > 100 µM | > 100 µM | > 100 µM | – | > 100 µM | > 100 µM | > 100 µM | > 100 µM | > 100 µM | > 100 µM | > 100 µM | > 100 µM | > 100 µM | > 100 µM | – | > 100 µM
7 | CN1C(=O)C2CCCC(=O)N2c2cccnc21 (centres undefined) | > 100 µM | > 100 µM | > 100 µM | > 100 µM | > 100 µM | > 100 µM | > 100 µM | > 100 µM | > 100 µM | – | > 100 µM | > 100 µM | > 100 µM | – | – | > 100 µM | > 100 µM | > 100 µM | > 100 µM
8 | O=c1c2ncn(C3CCCO3)c2n(-c2ccccc2)c(=S)n1-c1ccccc1 (centres undefined) | > 100 µM | > 100 µM | > 100 µM | > 100 µM | > 100 µM | – | > 100 µM | > 100 µM | > 100 µM | > 100 µM | > 100 µM | > 100 µM | > 100 µM | > 100 µM | > 100 µM | > 100 µM | > 100 µM | > 100 µM | > 100 µM
9 | CCOC(=O)c1sc2c(c1OC(=O)c1ccc(OC)cc1)c(=O)n(-c1ccccc1)c(=S)n2-c1ccccc1 | > 100 µM | > 100 µM | 73 µM | > 100 µM | 24.6 µM | > 100 µM | > 100 µM | – | – | > 100 µM | > 100 µM | > 100 µM | > 100 µM | 41.4 µM | > 100 µM | > 100 µM | > 100 µM | 38 µM | 23 µM
10 | CC1CN=C(N(C(=O)Nc2ccccc2)c2ccc(Cl)c(Cl)c2)S1 (centres undefined) | 93.3 µM | > 100 µM | – | > 100 µM | > 100 µM | > 100 µM | > 100 µM | 40.4 µM | – | > 100 µM | 34.5 µM | > 10 µM | – | 64.9 µM | – | > 100 µM | – | 69.9 µM | –
11 | CN(C)/N=C1/CCC(C(F)(F)F)(C(F)(F)F)O1 | 66.5 µM | 54.8 µM | 84 µM | > 100 µM | > 100 µM | 88.4 µM | > 100 µM | 90.6 µM | – | > 100 µM | 52.6 µM | 31.2 µM | 68.8 µM | 53.1 µM | > 100 µM | > 100 µM | 76 µM | > 100 µM | 99.3 µM
12 | Cc1cc(/N=C/c2ccc(F)cc2)n(-c2ccccc2)n1 | > 100 µM | > 100 µM | > 100 µM | > 100 µM | > 100 µM | > 100 µM | > 100 µM | > 100 µM | > 100 µM | > 100 µM | > 100 µM | > 100 µM | > 100 µM | > 100 µM | > 100 µM | > 100 µM | > 100 µM | – | > 100 µM
13 | COc1cccc(C2c3cc4c(cc3OC(C)(N3CCCC3)C2C)OCO4)c1 (centres undefined) | 25.1 µM | > 100 µM | 27.3 µM | 73.9 µM | 75 µM | 19.9 µM | > 100 µM | 11.2 µM | – | 47.5 µM | 14.5 µM | 23.6 µM | 23.6 µM | 85.3 µM | 51.9 µM | 92.1 µM | 32.9 µM | 32.8 µM | 5.7 µM
14 | CC(=O)N(C)CCc1c[nH]c2ccccc12 | > 100 µM | > 100 µM | > 100 µM | > 100 µM | > 100 µM | > 100 µM | > 100 µM | > 100 µM | > 100 µM | > 100 µM | > 100 µM | > 100 µM | > 100 µM | – | – | > 100 µM | > 100 µM | – | > 100 µM

Reference: PubChem BioAssay (NCI)
